Experiment [1] addresses T1, JNK1 kinase (Homo sapiens, UniProt P45983).
T1 construct: purchased Carna Biosciences 04-163
Put plainly: JNK1 activity screening (time-resolved fluorometric HTRF kinase assay). It is filed as biochemical. Particulars: enzymatic assay, activity level. Here is the method:
JNK1 activity screening. JNK1 activity was detected using a 96-well (Cisbio, 66PL96025) time-resolved fluorometric assay. The JNK1 assay was conducted in the following assay buffer: 10 mM MgCl2 (Sigma, M1028), 1 mM MnCl2 (Sigma, M1787), 1 mM DTT (Sigma, D0632) and 1× Enzymatic buffer/kinase (Cisbio, 62EZBFDC). By using the assay buffer, 3 μL of 0.1 ng/μL JNK1 kinase (Carna Biosciences, 04-163) was added to a 96-well microplate, and then 4 μL of a compound diluted appropriately (with a DMSO content of 2.5%) was added. The resulting mixture was incubated at room temperature for 0.5 h. To start the reaction, the assay buffer was used to mix 0.003 μM ATP (Aladdin, A7699) and 30 μM substrate ATF2-GST fusion (Cisbio, 64CUS000AFPEB), and 3 μL of the mixed solution was added to the microplate. The resulting mixture was incubated at room temperature for 2.5 h. HTRF detection buffer ([…], 62SDBRDD) was used then to prepare a mixture of 5 μg/mL MAb Anti GST-XL665 (Cisbio, 61GSTXLA) and 0.045 μg/mL PAb Anti-phospho ATF2-K (Cisbio, 61P12KAZ), and 10 μL of the mixture was added to the plate to terminate the reaction. After incubation for about 12 h, the plate was read on a Perkin-Elmer Envision reader.
In general terms: TR-FRET usually uses a lanthanide donor and a delayed reading to cut background.

Experiment [2] deals with RAW264.7 phosphorylated c-Jun (Ser63). Put plainly: RAW264.7 phosphorylated c-Jun whole cell assay. The class given is cell-based. Particulars: Mus musculus; cytological assay, activity level; lipopolysaccharide-activated RAW264.7 cells, phospho-c-Jun (Ser63) ELISA. Here is the method: RAW264.7 (ATCC TIB-71) cells were purchased from BeNa Culture Collection and maintained in a high-glucose DMEM medium (Gibco) containing 10% fetal bovine serum (Gibco) and 1% penicillin-streptomycin (Gibco). All cells were cultured at 37° C. in 95% air and 5% CO2. All cells were seeded into 120 μL of cell culture medium in a 96-well plate at a density of 2×10^5 cells per well. The stock solution of compound (15 mM) was serially diluted in DMSO (Sigma) and further diluted in growth medium, and it was then added at 15 μL per well as a 10× concentrated solution, well mixed with the cells and incubated with the cells for 30 min. Concentration of the compound vehicle (DMSO) in each well was 0.2%. After incubation for 30 min, the cells were activated with […] lipopolysaccharide (Sigma). Lipopolysaccharide was added to the growth medium as a 10× concentrated solution at 15 μL per well. The cell plate was incubated for 1 h, and then all the medium was removed. The level of C-Jun protein with phosphorylation of serine at site 63 was measured using the whole cell lysate kit-phosphorylated C-Jun assay (PathScan® Phospho-c-Jun (Ser63) Sandwich ELISA Kit) (CST, 7145C) according to the manufacturer's instructions.

The structures appear in SMILES notation.

T1 sequence (P45983 whole entry): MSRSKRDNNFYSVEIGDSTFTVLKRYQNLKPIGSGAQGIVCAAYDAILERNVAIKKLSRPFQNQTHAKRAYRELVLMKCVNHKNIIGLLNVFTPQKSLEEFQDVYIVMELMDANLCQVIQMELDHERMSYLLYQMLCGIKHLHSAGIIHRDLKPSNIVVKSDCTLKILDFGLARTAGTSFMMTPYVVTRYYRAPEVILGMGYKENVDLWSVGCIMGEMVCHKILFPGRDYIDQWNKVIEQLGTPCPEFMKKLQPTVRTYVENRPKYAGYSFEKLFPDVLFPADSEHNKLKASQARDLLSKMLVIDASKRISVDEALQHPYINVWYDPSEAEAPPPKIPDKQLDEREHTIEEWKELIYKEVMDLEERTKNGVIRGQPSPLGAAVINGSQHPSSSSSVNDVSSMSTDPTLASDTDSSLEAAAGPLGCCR

Usually IC50 stands for the concentration that inhibits the measured activity by half. With `C[C@@H]1CC[C@@H](Nc2cc(NC3CCC3)ncc2C(N)=O)C[C@H]1O` [Compound T049, 6-(cyclobutylamino)-4-(((1R,3R,4R)-3-hydroxy-4-methylcyclohexyl)amino) nicotinamide], the IC50 in experiment [1] was 500 to 1000 nM; in experiment [2] it was greater than 1000 nM.

Regarding `C[C@@H]1CC[C@@H](Nc2nc(Nc3ccc(N4CCN(C)CC4)cc3)ncc2C(N)=O)C[C@H]1O` [Compound T073, 4-(((1R,3R,4R)-3-hydroxy-4-methylcyclohexyl)amino)-2-((4-(4-methylpiperazin-1-yl)phenyl)amino)pyrimidine-5-carboxamide], the values for the IC50 in experiment [1] and in experiment [2] were less than 100 nM and 100 to 500 nM, respectively.

As to `C[C@@H]1CC[C@@H](Nc2cc(NCCO)ncc2C(N)=O)C[C@H]1O` [Compound T046, 4-(((1R,3R,4R)-3-hydroxy-4-methylcyclohexyl)amino)-6-((2-hydroxyethyl)amino)nicotinamide], the IC50 is 500 to 1000 nM in experiment [1] and greater than 1000 nM in experiment [2].

Regarding `C[C@@H]1CC[C@@H](Nc2nc(Nc3ccc(S(C)(=O)=O)cc3)ncc2C(N)=O)C[C@H]1O` [Compound T072, 4-(((1R,3R,4R)-3-hydroxy-4-methylcyclohexyl)amino)-2-((4-(methylsulfonyl)phenyl)amino) pyrimidine-5-carboxamide], the half-inhibitory concentration (IC50) in experiment [1] and in experiment [2] was less than 100 nM throughout.

Consider `C[C@@H]1CC[C@@H](Nc2nc(OC3CC3)ncc2C(N)=O)C[C@H]1O` [Compound T042, 2-cyclopropoxy-4-(((1R,3R,4R)-3-hydroxy-4-methylcyclohexyl)amino) pyrimidine-5-carboxamide], for which the values for the IC50 in experiment [1] and in experiment [2] were 500 to 1000 nM and greater than 1000 nM, respectively.

As to `CC#Cc1cnc(NC(C)(C)C)nc1N[C@@H]1CC[C@@H](C)[C@H](O)C1` [Compound T065, (1R,2R,5R)-5-((2-(tert-butylamino)-5-(prop-1-yn-1-yl)pyrimidin-4-yl)amino)-2-methylcyclohexan-1-ol], the IC50 in experiment [1] and in experiment [2] was greater than 1000 nM throughout.

On to `CC(C)(C)Nc1ncc(C(N)=O)c(Nc2cccc(CO)c2)n1` [Compound T026, 2-(tert-butylamino)-4-((3-(hydroxymethyl)phenyl)amino)pyrimidine-5-carboxamide], for which the results for the IC50 in experiment [1] and in experiment [2] were less than 100 nM and 100 to 500 nM, respectively.

With `CC(C)(C)Nc1ncc(C(N)=O)c(N2CCC(CO)C2)n1` (centres unmarked) [Compound T019, 2-(tert-butylamino)-4-(3-(hydroxymethyl)pyrrolidin-1-yl)pyrimidine-5-carboxamide], the IC50 in experiment [1] fell in the range of 100 to 500 nM; in experiment [2], 500 to 1000 nM.

For the compound `C[C@@H]1CC[C@@H](Nc2cc(NC3CC3O)ncc2C(N)=O)C[C@H]1O` (stereo partly drawn) [Compound T059, 4-(((1R,3R,4R)-3-hydroxy-4-methylcyclohexyl)amino)-6-((2-hydroxycyclopropyl)amino)nicotinamide], the IC50 in experiment [1] and in experiment [2] was greater than 1000 nM in each case.

Turning to `C[C@@H]1CC[C@@H](Nc2nc(NC3CC4(COC4)C3)ncc2C(N)=O)C[C@H]1O` [Compound T015, 2-((2-oxaspiro[3.3]heptan-6-yl)amino)-4-(((1R,3R,4R)-3-hydroxy-4-methylcyclohexyl)amino)pyrimidine-5-carboxamide], the IC50 in experiment [1] was less than 100 nM; in experiment [2], 500 to 1000 nM.

On to `CC(C)(C)Nc1ncc(C(N)=O)c(NC2CCC(=O)NC2)n1` (centres unmarked) [Compound T016, 2-(tert-butylamino)-4-((6-oxopiperidin-3-yl)amino)pyrimidine-5-carboxamide], for which the results for the IC50 in experiment [1] and in experiment [2] were less than 100 nM and 500 to 1000 nM, respectively.

As to `CCC(=O)c1cnc(NC(C)(C)C)nc1N[C@@H]1CC[C@@H](C)[C@H](O)C1` [Compound T069, 1-(2-(tert-butylamino)-4-(((1R,3R,4R)-3-hydroxy-4-methylcyclohexyl)amino)pyrimidin-5-yl)propan-1-one], the concentration for half-maximal inhibition (IC50) in experiment [1] and in experiment [2] was 100 to 500 nM throughout.

Turning to `C[C@@H]1CC[C@@H](Nc2nc(NC(C)(C)C)ncc2C(=O)C2CC2)C[C@H]1O` [Compound T068, (2-(tert-butylamino)-4-(((1R,3R,4R)-3-hydroxy-4-methylcyclohexyl)amino)pyrimidin-5-yl)(cyclopropyl)methanone], the concentration for half-maximal inhibition (IC50) in experiment [1] and in experiment [2] was 100 to 500 nM in each case.

With `C[C@@H]1CC[C@@H](Nc2cc(NC3CCCC(O)C3)ncc2C(N)=O)C[C@H]1O` (stereo partly drawn) [Compound T053, 4-(((1R,3R,4R)-3-hydroxy-4-methylcyclohexyl)amino)-6-((3-hydroxycyclohexyl)amino) nicotinamide], the IC50 in experiment [1] and in experiment [2] was greater than 1000 nM each time.

For the compound `CCNC(=O)N1CCC(Nc2ncc(C(N)=O)c(N[C@@H]3CC[C@@H](C)[C@H](O)C3)n2)CC1` [Compound T024, 2-((l-(ethylcarbamoyl)piperidin-4-yl)amino)-4-(((1R,3R,4R)-3-hydroxy-4-methylcyclohexyl)amino)pyrimidine-5-carboxamide], the IC50 in experiment [1] was less than 100 nM; in experiment [2], 100 to 500 nM.

As for `C[C@@H]1CC[C@@H](Nc2nc(NC(C)(C)C)ncc2S(N)(=O)=O)C[C@H]1O` [Compound T031, 2-(tert-butylamino)-4-(((1R,3R,4R)-3-hydroxy-4-methylcyclohexyl)amino) pyrimidine-5-sulfamide], the IC50 in experiment [1] and in experiment [2] was greater than 1000 nM throughout.

Turning to `CC(C)Nc1cc(N[C@@H]2CC[C@@H](C)[C@H](O)C2)c(C(N)=O)cn1` [Compound T047, 4-(((1R,3R,4R)-3-hydroxy-4-methylcyclohexyl)amino)-6-(isopropylamino)nicotinamide], the 50% inhibitory concentration (IC50) in experiment [1] was 500 to 1000 nM; in experiment [2] it was greater than 1000 nM.

With `COc1ccc(Oc2ncc(C(N)=O)c(N[C@@H]3CC[C@@H](C)[C@H](O)C3)n2)cc1` [Compound T040, 4-(((1R,3R,4R)-3-hydroxy-4-methylcyclohexyl)amino)-2-(4-methoxyphenoxy)pyrimidine-5-carboxamide], the IC50 in experiment [1] was 100 to 500 nM; in experiment [2] it was 500 to 1000 nM.

`C[C@@H]1CC[C@@H](Nc2nc(NC(C)(C)C)ncc2[N+](=O)[O-])C[C@H]1O` [Compound T062, (1R,2R,5R)-5-((2-(tert-butylamino)-5-nitropyrimidin-4-yl)amino)-2-methylcyclohex-1-ol]: the IC50 in experiment [1] and in experiment [2] was greater than 1000 nM throughout.

In the case of `C[C@@H]1CC[C@@H](Nc2nc(NC(C)(C)C)ncc2Br)C[C@H]1O` [Compound T033, (1R,2R,5R)-5-((5-bromo-2-(tert-butylamino)pyrimidin-4-yl)amino)-2-methylcyclohexan-1-ol], the IC50 in experiment [1] is less than 100 nM; in experiment [2] it was 500 to 1000 nM.

On to `C[C@@H]1CC[C@@H](Nc2nc(NC(C)(C)C)ncc2-n2ccnn2)C[C@H]1O` [Compound T036, (1R,2R,5R)-5-((2-(tert-butylamino)-5-(1H-1,2,3-triazol-1-yl)pyrimidin-4-yl)amino)-2-methylcyclohexan-1-ol], for which the IC50 lay in the range of 100 to 500 nM in experiment [1] and 500 to 1000 nM in experiment [2].

Turning to `C[C@@H]1CC[C@@H](Nc2nc(N3CCOCC3)ncc2C(N)=O)C[C@H]1O` [Compound T022, 4-(((1R,3R,4R)-3-hydroxy-4-methylcyclohexyl)amino)-2-morpholinopyrimidine-5-carboxamide], the IC50 in experiment [1] is 500 to 1000 nM; in experiment [2], greater than 1000 nM.

Turning to `C[C@@H]1CC[C@@H](Nc2cc(NC3CCCCC3)ncc2C(N)=O)C[C@H]1O` [Compound T054, 6-(cyclohexylamino)-4-(((1R,3R,4R)-3-hydroxy-4-methylcyclohexyl)amino) nicotinamide], the IC50 in experiment [1] and in experiment [2] was greater than 1000 nM in each case.

For `CC(C)(C)Nc1ncc(C(N)=O)c(NCC2CCC(=O)N2)n1` (centres unmarked) [Compound T009, 2-(tert-butylamino)-4-(((5-oxopyrrolidin-2-yl)methyl)amino)pyrimidine-5-carboxamide], the IC50 in experiment [1] and in experiment [2] was greater than 1000 nM in each case.

On to `C[C@@H]1CC[C@@H](Nc2cc(NC(C)(C)C)ncc2C#N)C[C@H]1O` [Compound T044, 6-(tert-butylamino)-4-(((1R,3R,4R)-3-hydroxy-4-methylcyclohexyl)amino) nicotinonitrile], for which the IC50 in experiment [1] and in experiment [2] was greater than 1000 nM each time.

Values taken from patent US20230104283A1, “JNK INHIBITOR, AND PHARMACEUTICAL COMPOSITION AND USE THEREOF” (WUHAN LL SCIENCE AND TECHNOLOGY DEVELOPMENT CO. , LTD, priority 2019, published 2023).
